{"source": "patent US20100204115A1", "about": "“USE OF ACETYL- (ALA10, 11)-RANTES (1-14) AND/OR CALCITONIN AS ANTI-ANGIOGENIC AGENTS” (priority 2007, published 2010)", "key": {"[1]": {"test_system": "hepatitis B virus (HBV) ayw strain", "test": "HBV experimental assay system, secreted HBV DNA by TaqMan PCR", "assay_type": "cell-based", "details": "10 micrograms per ml; HepG2-2.2.15, six days, HBV DNA in supernatant; combination 0.95 mole peptide 1 and 1.05 mole peptide 2"}, "[2]": {"test_system": "RAW 264.7 cells", "test": "Phagocytosis assay (Fluorescein-labeled Escherichia coli, flow cytometry)", "assay_type": "cell-based, mouse", "details": "10 micrograms per ml"}, "[3]": {"test_system": "A549 cells", "test": "Apoptosis prevention assay (C2 ceramide, Annexin-5)", "assay_type": "cell-based, human", "details": "10 micrograms per ml, 30 min pretreatment"}, "[4]": {"test_system": "TNF-a, spleen cells", "test": "Th1/Th2 cytokine profiling assay, TNF-a", "assay_type": "cell-based, Balb/c mice", "details": "10 micrograms per ml; Ovalbumin-restimulated spleen cells, 72 hours", "excerpt": "(§1) Th1/Th2 Cytokine Profiling Assay The Balb/c mice (originated in 1923, it is a popular strain and is used in many different research disciplines. […] On day 50, spleens of the mice were harvested (3 weeks after last boost with Ovalbumin). […] This kit can be used to measure Interleukin-2 (IL-2), Interleukin-4 (IL-4), Interleukin-5 (IL-5), Interferon-γ (IFN-γ), and Tumor Necrosis Factor-α (TNF-α) protein levels in a single sample. The kit performance has been optimized for analysis of physiologically relevant concentrations (pg/ml levels) of specific cytokine proteins in tissue culture supernatants and serum samples."}, "[5]": {"test_system": "IFNγ, spleen cells", "test": "Th1/Th2 cytokine profiling assay, IFNγ", "assay_type": "cell-based, Balb/c mice", "details": "10 micrograms per ml; Ovalbumin-restimulated spleen cells, 72 hours", "excerpt": "as §1"}, "[6]": {"test_system": "IL-2, spleen cells", "test": "Th1/Th2 cytokine profiling assay, IL-2", "assay_type": "cell-based, Balb/c mice", "details": "10 micrograms per ml; Ovalbumin-restimulated spleen cells, 72 hours", "excerpt": "as §1"}, "[7]": {"test_system": "IL-4, spleen cells", "test": "Th1/Th2 cytokine profiling assay, IL-4", "assay_type": "cell-based, Balb/c mice", "details": "10 micrograms per ml; Ovalbumin-restimulated spleen cells, 72 hours", "excerpt": "as §1"}, "[8]": {"test_system": "IL-5, spleen cells", "test": "Th1/Th2 cytokine profiling assay, IL-5", "assay_type": "cell-based, Balb/c mice", "details": "10 micrograms per ml; Ovalbumin-restimulated spleen cells, 72 hours", "excerpt": "as §1"}, "[9]": {"test_system": "Primary Human endothelial cells (HUVEC)", "test": "Endothelial cell migration assay", "assay_type": "cell-based", "details": "10 micrograms per ml, 22 hours"}, "[10]": {"test_system": "HUVEC", "test": "Endothelial tube formation assay", "assay_type": "cell-based, human", "details": "10 micrograms per ml, 20 hours, average tubule length, combination peptide 1:peptide 2 0.95 mole:1.05 mole", "protocol": "The endothelial tube formation assay is based on the ability of endothelial cells to form three-dimensional capillary-like tubular structures when cultured on a gel of basement membrane extract. The endothelial tube formation assay represents a powerful model for studying inhibition and induction of angiogenesis. Pre-labeled HUVEC with Calcein AM were seeded in a 96-well culture plate coated with extracellular metrix (Chemicon international Cat. ECM625) and treated with test peptides—10 micrograms per ml—in full growth medium. Positive control was vehicle only. The endothelial cells were allowed to form tubes foe 20 hours and were then examined under an inverted fluorescent microscope. Duplicate wells for each treatment were photographed and quantitatively analyzed for an average tubule length using image analysis software ImageProPlus. Raw data were expressed as average tubule lenghs in pixels ±standard deviation. Statistic p values were computed using the Student's t-test."}, "[11]": {"test_system": "HCMV strain AD169", "test": "HCMV plaque formation assay in MRC-5 cells", "details": "for inhibition of HCMV plaque formation as compared to the virus control experiment: 10 micrograms per ml, 7-10 days"}, "[12]": {"test_system": "HIV-1IIIB", "test": "HIV-1 antiviral assay in CEM-SS cells (MTS readout)", "details": "positive controls"}}, "data": [{"compound": "Cys-Gly-Asn-Leu-Ser-Thr-Cys-Met-Leu-Gly-Thr-Tyr-Thr-Gln-Asp-Phe-Asn-Lys-Phe-His-Thr-Phe-Pro-Gln-Thr-Ala-Ile-Gly-Val-Gly-Ala-Pro-NH2 [peptide 2]", "values": [{"measurement": "inhibition of HBV replication as compared to the virus control infection", "setting": "[1]", "result": 31.0, "unit": "%"}, {"measurement": "inhibitory or activating effects on the phagocytic activity of murine macrophages", "setting": "[2]; RAW 264.7, combination peptide 1:peptide 2 1.10 mole:0.90 mole", "result": "no inhibitory or activating effects on the phagocytic activity"}, {"measurement": "reduction of the ceramide-induced apoptosis on human lung cells", "setting": "[3]; combination 0.95 mole peptide 1 and 1.05 mole peptide 2", "result": 32.7, "unit": "%"}, {"measurement": "TNF-a spleen cells; TH1 response (% of control)", "setting": "[4]", "result": "116.4 % of control"}, {"measurement": "IFNγ spleen cells; TH1 response (% of control)", "setting": "[5]", "result": "63.7 % of control"}, {"measurement": "IL-2 spleen cells (% of control)", "setting": "[6]", "result": "110.1 % of control"}, {"measurement": "IL-4 spleen cells; TH2 response (% of control)", "setting": "[7]", "result": "0.0 % of control"}, {"measurement": "IL-5 spleen cells; TH2 response (% of control)", "setting": "[8]", "result": "60.2 % of control"}, {"measurement": "inhibition of the migration of human endothelial cells", "setting": "[9]", "result": 26, "unit": "%"}, {"measurement": "inhibition of the tube formation of endothelial cells", "setting": "[10]", "result": 18, "unit": "%"}, {"measurement": "inhibition of HCMV plaque formation as compared to the virus control experiment", "setting": "[11]", "result": "did not inhibit HCMV plaque formation"}]}, {"compound": "Ac-Ser-Pro-Tyr-Ser-Ser-Asp-Thr-Thr-Pro-Ala-Ala-Phe-Ala-Tyr-NH2 (Ac-SPYSSDTTPAAFAY-NH2) [peptide 1]", "values": [{"measurement": "inhibition of HBV replication as compared to the virus control infection", "setting": "[1]", "result": 40.7, "unit": "%"}, {"measurement": "increase of the phagocytic activity of murine macrophages", "setting": "[2]; RAW 264.7, Fluorescein-labeled E. coli", "result": 42.9, "unit": "%"}, {"measurement": "increase of the ceramide-induced apoptosis on human lung cells", "setting": "[3]", "result": 13.2, "unit": "%"}, {"measurement": "TNF-a spleen cells; TH1 response (% of control)", "setting": "[4]", "result": "107.4 % of control"}, {"measurement": "IFNγ spleen cells; TH1 response (% of control)", "setting": "[5]", "result": "102.8 % of control"}, {"measurement": "IL-2 spleen cells (% of control)", "setting": "[6]", "result": "116.2 % of control"}, {"measurement": "IL-4 spleen cells; TH2 response (% of control)", "setting": "[7]", "result": "80.4 % of control"}, {"measurement": "IL-5 spleen cells; TH2 response (% of control)", "setting": "[8]", "result": "70.7 % of control"}, {"measurement": "induction of the migration of human endothelial cells", "setting": "[9]", "result": 11, "unit": "%"}, {"measurement": "inhibition of the tube formation of endothelial cells", "setting": "[10]", "result": 26, "unit": "%"}, {"measurement": "inhibition of HCMV plaque formation as compared to the virus control experiment", "setting": "[11]", "result": "did not inhibit HCMV plaque formation"}]}, {"compound": "Cc1cn([C@H]2C[C@H](N=[N+]=[N-])[C@@H](CO)O2)c(=O)[nH]c1=O", "note": "[AZT]", "values": [{"measurement": "antiviral activity of positive control compounds", "setting": "[12]", "result": "expected levels of antiviral activity"}]}, {"compound": "CC(C)(C)NC(=O)[C@@H]1CN(Cc2cccnc2)CCN1C[C@@H](O)C[C@@H](Cc1ccccc1)C(=O)N[C@H]1c2ccccc2C[C@H]1O", "note": "[indinavir]", "values": [{"measurement": "antiviral activity of positive control compounds", "setting": "[12]", "result": "expected levels of antiviral activity"}]}, {"compound": "Nc1nc(O)c2ncn(COC(CO)CO)c2n1", "note": "[Ganciclovir, reference compound]", "values": [{"measurement": "antiviral activity of positive control compound", "setting": "[11]; HCMV AD169, positive control", "result": "expected levels of antiviral activity"}]}]}
